Assay results taken from patent US8546434B2, “Triazole compounds as KSP inhibitors” (Novartis AG, priority 2010, dated 2013).
Where two headings read alike, the source gives them in different places.

Target: motor domain of human KSP (Eg 5, KNSL1) (Homo sapiens (Human), UniProt P52732)
Experiment: Assay for determining KSP activity (microtubule-stimulated ATPase, Biomol Green phosphate detection)
Type: biochemical
Details: KSP motor domain 3 nM, bovine brain microtubules 50 μg/mL, 2 hours at RT, absorbance at 650 nm
Protocol: This example provides a representative in vitro assay for determining KSP activity in vitro. Purified microtubules obtained from bovine brain were purchased from Cytoskeleton Inc. (Denver, Colo., USA). The motor domain of human KSP (Eg 5, KNSL1) was cloned, expressed, and purified to greater than 95% homogeneity. Biomol Green was purchased from BIOMOL International L.P. (Plymouth Meeting, Pa., USA). The microtubules were rapidly thawed at 37° C. for 10 minutes before making dilution. Microtubules and KSP motor protein (i.e., the KSP motor domain) were diluted in assay buffer (20 mM Tris-HCl (pH 7.5), 1 mM MgCl2, 10 mM DTT and 0.125% BSA) to a final concentration of 50 μg/mL microtubules and 3 nM KSP.
To each well of the testing plate (96-well half area plate) containing 1.25 μL of inhibitor or test compound in DMSO (or DMSO only in the case of controls) were added 25 μL of ATP solution (ATP diluted to a concentration of 250 μM in assay buffer) and 25 μL of the above-described microtubule/KSP solution. The plates were incubated at RT for 2 hours. Following incubation, 65 μL of Biomol Green (a malachite green-based dye that detects the release of inorganic phosphate) with 0.015% Tween 20 was added to each well. The plates were incubated for an additional 15-20 minutes then the absorbance at 650 nm was determined using a Molecular Devices Spectrophotometer. The amount of absorbance at 650 nm corresponded to the amount of KSP activity in the samples. The IC50 of each inhibitor or test compound was then determined based on the decrease in absorbance at 650 nm at each concentration, via nonlinear regression using either XLFit for Excel or Prism data analysis software by GraphPad Software Inc.

[1] = read-out: Biological Activity (IC50)

Sequence of motor domain of human KSP (Eg 5, KNSL1) (P52732 18-359): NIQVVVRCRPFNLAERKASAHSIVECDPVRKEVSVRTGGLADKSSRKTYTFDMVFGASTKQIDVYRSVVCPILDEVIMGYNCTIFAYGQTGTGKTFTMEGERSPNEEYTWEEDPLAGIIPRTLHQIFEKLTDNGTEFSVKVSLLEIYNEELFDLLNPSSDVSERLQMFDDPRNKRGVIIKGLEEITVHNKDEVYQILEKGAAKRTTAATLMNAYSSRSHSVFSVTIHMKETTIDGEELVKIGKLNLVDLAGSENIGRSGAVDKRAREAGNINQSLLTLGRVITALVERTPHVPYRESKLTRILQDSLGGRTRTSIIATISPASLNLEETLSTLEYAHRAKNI

IC50 [1] | IC50 (read-out: KSP IC50) | SMILES
960 pM |  | CC(C)(C)[C@H](c1nc(-c2cc(F)ccc2F)nn1Cc1ccccc1)N(CC1CNC[C@@H]1F)C(=O)C1CCCO1 (stereo in doubt) [Compound 1, (S)—N—((R)-1-(1-benzyl-3-(2,5-difluorophenyl)-1H-1,2,4-triazol-5-yl)-2,2-dimethylpropyl)-N-(((3R,4R)-4-fluoropyrrolidin-3-yl)methyl)tetrahydrofuran-2-carboxamide]
830 pM |  | C[C@@H]1CN(C(=O)N(C[C@@H]2CNC[C@@H]2F)[C@@H](c2nc(-c3cc(F)ccc3F)nn2Cc2ccccc2)C(C)(C)C)C[C@H](C)O1 (stereo in doubt) [Compound 2, N—((R)-1-(1-benzyl-3-(2,5-difluorophenyl)-1H-1,2,4-triazol-5-yl)-2,2-dimethylpropyl)-N-(((3R,4R)-4-fluoropyrrolidin-3-yl)methyl)-2,6-dimethylmorpholine-4-carboxamide]
740 pM |  | C[C@@H]1CN(C(=O)N(C[C@@H]2CNC[C@@H]2F)[C@@H](c2nc(-c3cc(F)ccc3F)nn2Cc2cccc(F)c2)C(C)(C)C)C[C@H](C)O1 (stereo in doubt) [Compound 3, N—((R)-1-(3-(2,5-difluorophenyl)-1-(3-fluorobenzyl)-1H-1,2,4-triazol-5-yl)-2,2-dimethylpropyl)-N-(((3R,4R)-4-fluoropyrrolidin-3-yl)methyl)-2,6-dimethylmorpholine-4-carboxamide]
600 pM |  | C[C@H](O)C(=O)N(CC1CNC[C@@H]1F)[C@@H](c1nc(-c2cc(F)ccc2F)nn1Cc1ccccc1)C(C)(C)C (stereo in doubt) [Compound 4, (S)—N—((R)-1-(1-benzyl-3-(2,5-difluorophenyl)-1H-1,2,4-triazol-5-yl)-2,2-dimethylpropyl)-N-(((3R,4R)-4-fluoropyrrolidin-3-yl)methyl)-2-hydroxypropanamide]
1460 pM |  | CC(C)(C)C(c1nc(-c2cc(F)ccc2F)nn1Cc1cccc(F)c1)N(CC1CNC[C@@H]1F)C(=O)C1CCCO1 (stereo in doubt) [Compound 5, (S)—N—((R)-1-(3-(2,5-difluorophenyl)-1-(3-fluorobenzyl)-1H-1,2,4-triazol-5-yl)-2,2-dimethylpropyl)-N-(((3R,4R)-4-fluoropyrrolidin-3-yl)methyl)tetrahydrofuran-2-carboxamide]
830 pM |  | C[C@H](O)C(=O)N(CC1CNC[C@@H]1F)[C@@H](c1nc(-c2cc(F)ccc2F)nn1Cc1cccc(F)c1)C(C)(C)C (stereo in doubt) [Compound 6, (S)—N—((R)-1-(3-(2,5-difluorophenyl)-1-(3-fluorobenzyl)-1H-1,2,4-triazol-5-yl)-2,2-dimethylpropyl)-N-(((3R,4R)-4-fluoropyrrolidin-3-yl)methyl)-2-hydroxypropanamide]
 | 1230 pM | COC(C)(C)[C@H](c1nc(-c2cc(F)ccc2F)nn1Cc1cccc(F)c1)N(CC[C@H](N)CF)C(=O)[C@@H]1CCCO1 [Compound 7]
 | 1490 pM | COC(C)(C)[C@H](c1nc(-c2cc(F)ccc2F)nn1Cc1cccc(F)c1)N(CC[C@H](N)CF)C(=O)[C@H](C)O [Compound 8]
 | 49400 pM | CCN1C[C@@H](CN(C(=O)[C@@H]2CCCO2)[C@@H](c2nc(-c3cc(F)ccc3F)nn2Cc2cccc(F)c2)C(C)(C)OC)[C@@H](F)C1 [Compound 9]
 | 900 pM | COC(C)(C)[C@H](c1nc(-c2cc(F)ccc2F)nn1Cc1cccc(F)c1)N(C[C@@H]1CNC[C@@H]1F)C(=O)[C@@H]1CCCO1 [Compound 10]
 | 1400 pM | COC(C)(C)[C@H](c1nc(-c2cc(F)ccc2F)nn1Cc1ccccc1)N(CC[C@H](N)CF)C(=O)[C@@H]1CCCO1 [Compound 11]
 | 870 pM | COC(C)(C)[C@H](c1nc(-c2cc(F)ccc2F)nn1Cc1cccc(F)c1)N(C[C@@H]1CNC[C@@H]1F)C(=O)[C@H](C)O [Compound 12]
 | 690 pM | COC(C)(C)[C@H](c1nc(-c2cc(F)ccc2F)nn1Cc1ccccc1)N(C[C@@H]1CNC[C@@H]1F)C(=O)[C@@H]1CCCO1 [Compound 13]
 | 2340 pM | COC(C)(C)[C@H](c1nc(-c2cc(F)ccc2F)nn1Cc1ccccc1)N(CC[C@H](N)CF)C(=O)[C@H](C)O [Compound 14]
